Molecular target: 20S proteasome (Homo sapiens, UniProt P28072+P28074+Q99436)
Test: activation of Ac-Arg-Leu-Arg-AMC hydrolysis
Assay type: biochemical
Details: activator, trypsin-like activity

Structure (SMILES): C=C(CC)C(=O)c1ccc(OCC(=O)NCCCCCCNC(=O)CNC(=O)OC(C)(C)C)c(Cl)c1Cl [compound 5, EA-B1G]
- fold activation: Activation of the trypsin-like subunits was also observed with EA-B1G and EA-B2O

Structure (SMILES): C=C(CC)C(=O)c1ccc(OCC(=O)NCCCCCCNC(=O)[C@H](CCCNC(=O)OC(C)(C)C)NC(=O)OC(C)(C)C)c(Cl)c1Cl [compound 4, EA-B2O]
- fold activation: Activation of the trypsin-like subunits was also observed with EA-B1G and EA-B2O
